In ChEMBL document CHEMBL1154508, “Discovery of GSK345931A: An EP(1) receptor antagonist with efficacy in preclinical models of inflammatory pain” (Bioorg Med Chem Lett, 2009):

Columns and labels:
[1] = Lipophilicity, log D at pH 7.4; format: physicochemical; conditions: buffer
[2] = Drug level in blood of complete Freund's adjuvant-induced rat inflammatory pain model at 2 mg/kg, po after 1 hr; format: ADME, organism-based; design: dose 2 mg/kg, route oral; conditions: read-out: Drug uptake
[3] = Ratio of drug level in brain to blood in complete Freund's adjuvant-induced rat inflammatory pain model at 2 mg/kg, po after 1 hr; format: ADME, organism-based; design: dose 2 mg/kg, route oral
[4] = Fraction unbound in rat brain
[5] = molecular target: T1, Prostaglandin E2 receptor EP1 subtype (Homo sapiens, UniProt P34995); test: Binding affinity to EP1 receptor
T1 sequence (P34995 whole entry): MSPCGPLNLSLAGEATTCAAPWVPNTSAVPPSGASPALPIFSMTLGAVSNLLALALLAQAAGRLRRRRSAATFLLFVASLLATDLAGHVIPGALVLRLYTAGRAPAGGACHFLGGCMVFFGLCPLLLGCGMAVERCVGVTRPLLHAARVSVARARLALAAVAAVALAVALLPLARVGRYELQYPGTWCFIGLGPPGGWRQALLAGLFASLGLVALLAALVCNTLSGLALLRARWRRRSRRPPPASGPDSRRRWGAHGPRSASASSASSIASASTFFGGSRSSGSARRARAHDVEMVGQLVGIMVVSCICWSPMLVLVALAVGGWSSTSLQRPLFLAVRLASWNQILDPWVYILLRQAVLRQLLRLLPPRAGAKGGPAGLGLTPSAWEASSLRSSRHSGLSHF

[6] = molecular target: T2, Prostaglandin E2 receptor EP3 subtype (Homo sapiens, UniProt P43115); test: Activity at EP3 receptor by FLIPR method
T2 sequence (P43115 whole entry): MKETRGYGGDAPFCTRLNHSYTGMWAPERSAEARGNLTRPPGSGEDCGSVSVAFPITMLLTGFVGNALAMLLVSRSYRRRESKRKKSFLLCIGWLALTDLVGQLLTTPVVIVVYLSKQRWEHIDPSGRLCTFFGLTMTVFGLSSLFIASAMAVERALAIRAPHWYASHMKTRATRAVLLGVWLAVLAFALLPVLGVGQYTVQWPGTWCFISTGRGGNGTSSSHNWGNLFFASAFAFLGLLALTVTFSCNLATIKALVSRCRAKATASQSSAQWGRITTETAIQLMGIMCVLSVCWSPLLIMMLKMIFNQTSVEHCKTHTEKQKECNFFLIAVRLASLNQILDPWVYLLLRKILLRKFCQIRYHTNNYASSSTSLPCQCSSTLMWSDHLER

[7] = Solubility in fasted state simulated intestinal fluid after 24 hrs; format: physicochemical
[8] = Ratio of drug level in brain to blood in complete Freund's adjuvant-induced rat inflammatory pain model 3 mg/kg, po after 1 hr; format: ADME, organism-based; design: dose 3 mg/kg, route oral
[9] = Ratio of drug level in brain to blood in complete Freund's adjuvant-induced rat inflammatory pain model at 1 mg/kg, po after 1 hr; format: ADME, organism-based; design: dose 1 mg/kg, route oral
Liver microsomes = test: Metabolic stability assessed as intrinsic clearance per gram of human liver microsomes; format: ADME, Microsome
[10] = Drug level in brain of sub-chronic rat joint pain efficacy model satellite animal group at 20 mg/kg bid measured on day 5 after 1 hr post dose; format: ADME, organism-based; design: dose 20 mg/kg; conditions: read-out: Drug uptake
[11] = Ratio of drug level in brain to blood of sub-chronic rat joint pain efficacy model treatment group at 20 mg/kg bid measured on day 5 after 1 hr post dose; format: ADME, organism-based; design: dose 20 mg/kg
[12] = Drug level in brain of complete Freund's adjuvant-induced rat inflammatory pain model at 2 mg/kg, po after 1 hr; format: ADME, organism-based; design: dose 2 mg/kg, route oral; conditions: read-out: Drug uptake
[13] = Volume of distribution at steady state in cynomolgus monkey at 1 mg/kg, iv; format: ADME, organism-based, Macaca fascicularis; design: dose 1 mg/kg, route intravenous; conditions: in vivo, read-out: Vdss
[14] = Drug level in brain of complete Freund's adjuvant-induced rat inflammatory pain model at 10 mg/kg, po after 1 hr; format: ADME, organism-based; design: dose 10 mg/kg, route oral; conditions: read-out: Drug uptake
[15] = Solubility in simulated gastric fluid after 2 hrs; format: physicochemical
[16] = Ratio of drug level in brain to blood of sub-chronic rat joint pain efficacy model satellite animal group at 20 mg/kg bid measured on day 5; format: ADME, organism-based; design: dose 20 mg/kg
[17] = Drug level in brain of complete Freund's adjuvant-induced rat inflammatory pain model at 3 mg/kg, po after 1 hr; format: ADME, organism-based; design: dose 3 mg/kg, route oral; conditions: read-out: Drug uptake
[18] = Drug level in rat brain at 0.28 mg/kg/hr, iv for 18 hrs; format: ADME, organism-based; design: route intravenous; conditions: read-out: Drug uptake
[19] = Drug level in blood of sub-chronic rat joint pain efficacy model satellite animal group at 20 mg/kg bid measured on day 5 after 1 hr post dose; format: ADME, organism-based; design: dose 20 mg/kg; conditions: read-out: Drug uptake

logD [1]: 1.9
concentration at 1 h [2]: 2140 nM
Kp at 1 h [3]: 0.22
Fu [4]: 0.53%
IC50 [5]: 15.8 nM
Ki [6]: 2000 nM
solubility at 24 h [7]: 1050 µg/mL
Kp at 1 h [8]: 0.72
Kp at 1 h [9]: 0.27
CL (Liver microsomes): 1.9 mL/min/g
concentration at 1 h [10]: 3630 nM
Kp at 1 h [11]: 0.45
concentration at 1 h [12]: 645 nM
Vd [13]: 0.5 L/kg
concentration at 1 h [14]: 7260 nM
solubility at 2 h [15]: 33 µg/mL
Kp at 5 day [16]: 0.5
concentration at 1 h [17]: 1480 nM
concentration at 18 h [18]: 550 nM
concentration at 1 h [19]: 6770 nM
SMILES: CC(C)COc1ccc(Cl)cc1-c1ccccc1-c1cccc(C(=O)[O-])n1.[Na+]
